Results taken from patent publication US6277829A, “Process for preparing of aqueous formulation for opthalmic use” (S.I.F.I. Societa Industria Farmaceutica Italiana S.p.A., priority 1999, dated 2001).
Converted amounts (≈) assume the structure as drawn.

Key:
[1] = test system: St. Pneumoniae ATCC 49619; test: In vitro antibacterial activity, MIC; assay type: cell-based; settings: Streptococcus pneumoniae
Excerpt: (§1) In vitro bacteriostatic/bactericidal activity of azithromycin in different ophthalmic solutions has been evaluated as a function of ([H+]). Assessment of the activity it has been carried out by standardized method recommended by the National Committee for Clinical Laboratory Standards (NCCLS). In particular, three azithromycin solutions at different pH (6.5, 7.2, 7.8) in citrate-phosphate have been examined. Accordingly, three aliquots of Mueller-Hinton broth have been adjusted to the same pH of the azithromycin solutions (three) to be tested.
(§2) MIC values (μg/ml) have been measured by turbidity standard method after incubation of azithromycin aliquots, at the different pH, ranging from 18 to 24 h. Incubation for Staphylococcus spp. and Pseudomonas spp. needs aerobic conditions whereas Streptococcus spp. and Haernophilus spp. require partial anaerobic conditions during the period of incubation (5%, CO2).
(§3) Concentration of azithromycin able to inhibit the growth of the bacteria, after the period of incubation, is defined as the minimum inhibitory concentration (MIC).

[2] = test system: S. epidermidis ATCC 12228; test: In vitro antibacterial activity, MIC; assay type: cell-based; settings: Staphylococcus epidermidis
Excerpt: as §1, §2, §3

[3] = test system: H. influenzae ATCC 49247; test: In vitro antibacterial activity, MIC; assay type: cell-based; settings: Haemophilus influenzae
Excerpt: as §1, §2, §3

[4] = test system: S. aureus ATCC 25923; test: In vitro antibacterial activity, MIC; assay type: cell-based; settings: Staphylococcus aureus
Excerpt: as §1, §2, §3

[5] = test system: S. aureus ATCC 29213; test: In vitro antibacterial activity, MIC; assay type: cell-based; settings: Staphylococcus aureus
Excerpt: as §1, §2, §3

[6] = test system: Ps. aeruginosa ATCC 27853; test: In vitro antibacterial activity, MIC; assay type: cell-based; settings: Pseudomonas aeruginosa
Excerpt: as §1, §2, §3

[7] = test system: S. aureus ATCC 6538P; test: In vitro antibacterial activity, MIC; assay type: cell-based; settings: Staphylococcus aureus, ATCC6538P
Excerpt: as §1, §2, §3

[8] = test system: St. Pryogenes ATCC 21547; test: In vitro antibacterial activity, MIC; assay type: cell-based
Excerpt: as §1, §2, §3

[9] = test system: H. influenzae ATCC 9006; test: In vitro antibacterial activity, MIC; assay type: cell-based; settings: Haemophilus influenzae
Excerpt: as §1, §2, §3

[10] = test system: Ps. aeruginosa ATCC 9027; test: In vitro antibacterial activity, MIC; assay type: cell-based; settings: Pseudomonas aeruginosa
Excerpt: as §1, §2, §3

[11] = test system: gram-positive organisms; settings: compared with other macrolides; cited from earlier work
[12] = in vivo; parameters: species or system white New Zealand rabbits; settings: rabbit, topical or ocular, Ct (tissue concentration of azithromycin)
Procedure: Twelve male white New Zealand rabbits (weighing 1.8-2.3 kg) have been randomly divided in three groups (consisting of four animals each).
I Group: three instillations (animals have been sacrificed 6 hours after the first dosing)
II Group: six instillations (animals have been sacrificed 12 hours after the first dosing)
III Group: six instillations (animals have been sacrificed 24 hours after the first dosing)
Aqueous humor has been drawn away with a 23-gauge needle attached to an insulin syringe of 1 ml. After enucleation the cornea has been excised at the limbus and removed from the eyeball. All specimens have been carefully weighed, then immediately frozen at -20° C. […] Each specimen has been ground and homogenized with 1 ml of PBS (2 min., 24,000 rpm). The suspension has been mixed with an equal volume of acetonitrile and stored at 0° C. After 1 hour, the samples have been centrifuged at 0° C. […] Aqueous humor has been directly mixed with acetonitrile before being centrifuged.

[13] = Procedure: The final solution (100 ml), has been sterilized and distributed in appropriate vials.
[14] = titration of azithromycin and clarithromycin, dispersed in water, with citric acid (FIG. 1, FIG. 2); assay type: physicochemical
[15] = test system: gram-negative organisms; settings: some gram-negative organisms, compared with other macrolides; cited from earlier work

SMILES: CC[C@H]1OC(=O)[C@H](C)[C@@H](O[C@H]2C[C@@](C)(OC)[C@@H](O)[C@H](C)O2)[C@H](C)[C@@H](O[C@@H]2O[C@H](C)C[C@H](N(C)C)[C@H]2O)[C@](C)(O)C[C@@H](C)CN(C)[C@H](C)[C@@H](O)[C@]1(C)O [azithromycin]
- MIC ([1]; ATCC49619, pH 6.5): 1.25 µg/mL (≈ 1.67 µM)
- MIC ([1]; ATCC49619, pH 7.2): 0.25 µg/mL (≈ 0.334 µM)
- MIC ([1]; ATCC49619, pH 7.8): 0.15 µg/mL (≈ 0.2 µM)
- MIC ([2]; ATCC12228, pH 6.5): 2.5 µg/mL (≈ 3.34 µM)
- MIC ([2]; ATCC12228, pH 7.2): 1.5 µg/mL (≈ 2 µM)
- MIC ([2]; ATCC12228, pH 7.8): 0.75 µg/mL (≈ 1 µM)
- MIC ([3]; ATCC49247, pH 6.5): 3 µg/mL (≈ 4.01 µM)
- MIC ([3]; ATCC49247, pH 7.2): 2 µg/mL (≈ 2.67 µM)
- MIC ([3]; ATCC49247, pH 7.8): 1 µg/mL (≈ 1.34 µM)
- MIC ([4]; ATCC25923, pH 6.5): 3 µg/mL (≈ 4.01 µM)
- MIC ([4]; ATCC25923, pH 7.2): 1.5 µg/mL (≈ 2 µM)
- MIC ([4]; ATCC25923, pH 7.8): 0.75 µg/mL (≈ 1 µM)
- MIC ([5]; ATCC29213, pH 6.5): 3.25 µg/mL (≈ 4.34 µM)
- MIC ([5]; ATCC29213, pH 7.2): 2.25 µg/mL (≈ 3 µM)
- MIC ([5]; ATCC29213, pH 7.8): 1 µg/mL (≈ 1.34 µM)
- MIC ([6]; ATCC27853, pH 6.5): > 200 µg/mL
- MIC ([6]; ATCC27853, pH 7.2): 50 µg/mL (≈ 66.8 µM)
- MIC ([6]; ATCC27853, pH 7.8): 12.5 µg/mL (≈ 16.7 µM)
- MIC ([7]; pH 6.5): 2.25 µg/mL (≈ 3 µM)
- MIC ([7]; pH 7.2): 1 µg/mL (≈ 1.34 µM)
- MIC ([7]; pH 7.8): 0.75 µg/mL (≈ 1 µM)
- MIC ([8]; pH 6.5): 1.5 µg/mL (≈ 2 µM)
- MIC ([8]; pH 7.2): 0.37 µg/mL (≈ 0.494 µM)
- MIC ([8]; pH 7.8): 0.2 µg/mL (≈ 0.267 µM)
- MIC ([9]; ATCC9006, pH 6.5): 3 µg/mL (≈ 4.01 µM)
- MIC ([9]; ATCC9006, pH 7.2): 2 µg/mL (≈ 2.67 µM)
- MIC ([9]; ATCC9006, pH 7.8): 0.5 µg/mL (≈ 0.668 µM)
- MIC ([10]; ATCC9027, pH 6.5): 200 µg/mL (≈ 267 µM)
- MIC ([10]; ATCC9027, pH 7.2): 25 µg/mL (≈ 33.4 µM)
- MIC ([10]; ATCC9027, pH 7.8): 6.25 µg/mL (≈ 8.34 µM)
- antibacterial efficacy [11]: same efficacy
- concentration at 6 h [12]: < 200000 ng/g
- concentration at 6 h ([12]; Average): 250000 ng/g
- concentration at 24 h ([12]; Average): 420000 ng/g
- effect of azithromycin concentration on stability [13]: does not affect the stability of the final product
- solubilization by citric acid ([14]; citric acid, physiological range of pH): elevated concentration
- equivalent point ([14]; titration with citric acid): ~7.0 pH
- antibacterial activity [15]: superior antibacterial activity
